Results published in ChEMBL document CHEMBL5506027, “Discovery of a Novel and Potent Cyclin-Dependent Kinase 8/19 (CDK8/19) Inhibitor for the Treatment of Cancer” (J Med Chem, 2024).

How the values were obtained:
[1] = molecular target: CDK8/Cyclin C (Homo sapiens, UniProt P49336); assay: Displacement of tracer 236 from CDK8/cyclin C (unknown origin) preincubated for 15 mins followed by tracer addition and measured after 60 mins by FRET based lanthascreen assay; type: protein-complex assay
[2] = system: MV4-11; assay: Antiproliferative activity against human MV4-11 cells incubated for 5 days by CellTiter-Glo luminescent cell viability assay; type: functional, cell-based; details: MV4-11, 120 h

CDK8/Cyclin C, sequence (P49336 whole entry): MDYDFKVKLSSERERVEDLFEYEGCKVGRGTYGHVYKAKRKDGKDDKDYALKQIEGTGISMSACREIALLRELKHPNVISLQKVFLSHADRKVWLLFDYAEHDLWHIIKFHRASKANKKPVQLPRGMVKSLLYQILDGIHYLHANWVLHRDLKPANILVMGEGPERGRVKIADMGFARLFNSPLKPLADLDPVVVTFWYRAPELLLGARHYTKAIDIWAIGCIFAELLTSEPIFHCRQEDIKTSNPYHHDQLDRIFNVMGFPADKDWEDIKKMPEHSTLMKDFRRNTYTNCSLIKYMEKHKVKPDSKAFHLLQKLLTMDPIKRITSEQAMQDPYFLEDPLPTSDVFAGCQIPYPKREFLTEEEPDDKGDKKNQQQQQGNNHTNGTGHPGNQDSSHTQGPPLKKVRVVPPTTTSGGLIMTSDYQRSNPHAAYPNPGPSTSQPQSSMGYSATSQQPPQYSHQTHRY
CDK8/Cyclin C, sequence (P24863 whole entry, further chain): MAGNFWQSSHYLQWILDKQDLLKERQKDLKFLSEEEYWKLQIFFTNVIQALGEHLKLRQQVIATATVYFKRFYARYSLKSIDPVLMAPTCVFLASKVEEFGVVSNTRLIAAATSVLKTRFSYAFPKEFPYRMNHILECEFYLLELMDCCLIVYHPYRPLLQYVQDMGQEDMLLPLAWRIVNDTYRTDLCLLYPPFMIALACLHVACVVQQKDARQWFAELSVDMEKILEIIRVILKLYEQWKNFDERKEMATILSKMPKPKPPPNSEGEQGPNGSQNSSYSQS

| Structure (SMILES) | IC50 [1] [µM] | IC50 [2] [µM] |
| --- | --- | --- |
| Brc1cc2c(nc(N3CCNCC3)n2C2CCOCC2)c(C2CC2)c1Br | 0.0486 | > 1 |
| N[C@@H]1CCN(c2nc3c(C(F)F)c(Br)c(Br)cc3n2C2CCOCC2)C1 | 0.02 | 0.0338 |
| Cc1c(Br)c(Br)cc2c1nc(N1CCNCC1)n2C1CCOCC1 | 0.0079 | 0.0394 |
| Cc1c(Br)c(Br)cc2c1nc(N1CCNCC1)n2C1CCCOC1 (stereo not given) | 0.0167 | 0.478 |
| NC1CCN(c2nc3c(C(F)F)c(Br)c(Br)cc3n2C2CCOCC2)CC1 | 0.035 | 0.188 |
| CN1CCN(c2nc3c(C(F)F)c(Br)c(Br)cc3n2C2CCOCC2)CC1 | 0.0064 | 0.152 |
| C#Cc1c(Br)c(Br)cc2c1nc(N1CCNCC1)n2C1CCOCC1 | 0.0108 | 0.0725 |
| Clc1c(Br)c(Br)cc2c1nc(N1CCNCC1)n2C1CCOCC1 | 0.091 | > 1 |
| OCCN1CCN(c2nc3c(C(F)F)c(Br)c(Br)cc3n2C2CCOCC2)CC1 | 0.0065 | 0.0327 |
| Brc1cc2nc(N3CCNCC3)n(C3CCOCC3)c2cc1Br | 0.166 | 0.526 |
| Cc1c(Br)c(Br)c(C)c2c1nc(N1CCNCC1)n2C1CCCC1 | 0.139 | > 1 |
| Cc1c(Br)c(Br)cc2c1nc(N1CCNCC1)n2[C@H]1CC[C@H](O)CC1 | 0.0112 | 0.146 |
| Cc1c(Br)c(Br)cc2c1nc(N1CCNCC1)n2C1CCCC1 | 0.0363 | 0.421 |
| C=Cc1c(Br)c(Br)cc2c1nc(N1CCNCC1)n2C1CCOCC1 | 0.0336 | 0.36 |
| Cc1c(Br)c(Br)cc2c1nc(N1CCNCC1)n2C1CC2(COC2)C1 | > 1 | 0.795 |
